Reference: paper PMC2843925 (ACS chemical neuroscience, 2010)

Key:
[1] = target: T1, hNET (Homo sapiens, UniProt P23975); format: cell-based
[2] = target: T1, hNET; format: binding
[3] = target: T2, hDAT (Homo sapiens, UniProt Q01959); assay: [3H]-WIN 35,428 binding displacement in hDAT N2A cells; conditions: 10 μM, pre- or co-incubation
[4] = target: T2, hDAT; assay: [3H]-dopamine uptake inhibition in hDAT N2A cells
[5] = target: T3, hSERT (Homo sapiens, UniProt P31645); assay: [125I]-RTI-55 binding, HEK-hSERT membranes; conditions: for Hill coefficient: [125I]-RTI-55 binding
T3 sequence (P31645 whole entry): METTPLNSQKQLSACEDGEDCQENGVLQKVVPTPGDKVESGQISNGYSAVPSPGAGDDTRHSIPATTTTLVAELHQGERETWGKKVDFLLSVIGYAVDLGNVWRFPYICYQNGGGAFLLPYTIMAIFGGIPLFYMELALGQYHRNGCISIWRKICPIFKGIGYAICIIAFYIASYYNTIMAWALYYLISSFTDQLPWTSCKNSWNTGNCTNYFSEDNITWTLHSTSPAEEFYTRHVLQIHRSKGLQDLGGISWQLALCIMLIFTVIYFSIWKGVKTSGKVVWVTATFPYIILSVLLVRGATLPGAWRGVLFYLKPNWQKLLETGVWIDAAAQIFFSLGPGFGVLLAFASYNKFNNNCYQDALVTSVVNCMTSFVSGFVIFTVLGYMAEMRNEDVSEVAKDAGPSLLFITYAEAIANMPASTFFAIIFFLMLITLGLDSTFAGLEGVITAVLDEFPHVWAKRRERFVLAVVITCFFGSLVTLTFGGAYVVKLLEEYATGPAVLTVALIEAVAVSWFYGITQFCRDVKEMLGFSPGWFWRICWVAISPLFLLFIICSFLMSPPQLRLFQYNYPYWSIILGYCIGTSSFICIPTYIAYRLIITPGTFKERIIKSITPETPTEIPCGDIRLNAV

[6] = target: T2, hDAT; assay: [3H]-dopamine uptake inhibition, HEK-hDAT cells; format: cell-based; conditions: switch to HEK cells
[7] = target: T3, hSERT; assay: [3H]-serotonin uptake inhibition, HEK-hSERT cells; format: cell-based; conditions: read-out: [3H]-Serotonin uptake IC50, mean ± SEM
[8] = target: T2, hDAT; assay: [125I]-RTI-55 binding, HEK-hDAT membranes; conditions: for Hill coefficient: [125I]-RTI-55 binding
[9] = ref [17]; cited from earlier work
[10] = target: DAT; conditions: known DAT ligands; ref Ukairo et al. ([12]); cited from earlier work

T1 sequence (P23975 whole entry): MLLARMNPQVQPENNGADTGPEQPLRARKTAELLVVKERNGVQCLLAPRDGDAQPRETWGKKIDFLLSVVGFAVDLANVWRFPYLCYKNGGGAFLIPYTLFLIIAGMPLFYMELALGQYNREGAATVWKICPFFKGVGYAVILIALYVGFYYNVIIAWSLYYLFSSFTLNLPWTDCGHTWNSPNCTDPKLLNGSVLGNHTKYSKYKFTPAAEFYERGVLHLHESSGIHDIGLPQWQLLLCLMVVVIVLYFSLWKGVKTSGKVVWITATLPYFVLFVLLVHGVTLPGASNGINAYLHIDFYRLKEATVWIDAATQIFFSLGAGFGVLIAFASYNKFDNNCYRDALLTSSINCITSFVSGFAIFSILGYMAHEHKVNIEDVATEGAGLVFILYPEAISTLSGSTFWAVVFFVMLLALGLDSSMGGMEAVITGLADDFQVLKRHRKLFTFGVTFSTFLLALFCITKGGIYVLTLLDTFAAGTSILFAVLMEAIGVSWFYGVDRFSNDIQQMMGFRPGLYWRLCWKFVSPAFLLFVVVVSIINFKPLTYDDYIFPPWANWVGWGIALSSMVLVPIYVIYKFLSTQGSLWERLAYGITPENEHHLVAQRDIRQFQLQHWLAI
T2 sequence (Q01959 whole entry): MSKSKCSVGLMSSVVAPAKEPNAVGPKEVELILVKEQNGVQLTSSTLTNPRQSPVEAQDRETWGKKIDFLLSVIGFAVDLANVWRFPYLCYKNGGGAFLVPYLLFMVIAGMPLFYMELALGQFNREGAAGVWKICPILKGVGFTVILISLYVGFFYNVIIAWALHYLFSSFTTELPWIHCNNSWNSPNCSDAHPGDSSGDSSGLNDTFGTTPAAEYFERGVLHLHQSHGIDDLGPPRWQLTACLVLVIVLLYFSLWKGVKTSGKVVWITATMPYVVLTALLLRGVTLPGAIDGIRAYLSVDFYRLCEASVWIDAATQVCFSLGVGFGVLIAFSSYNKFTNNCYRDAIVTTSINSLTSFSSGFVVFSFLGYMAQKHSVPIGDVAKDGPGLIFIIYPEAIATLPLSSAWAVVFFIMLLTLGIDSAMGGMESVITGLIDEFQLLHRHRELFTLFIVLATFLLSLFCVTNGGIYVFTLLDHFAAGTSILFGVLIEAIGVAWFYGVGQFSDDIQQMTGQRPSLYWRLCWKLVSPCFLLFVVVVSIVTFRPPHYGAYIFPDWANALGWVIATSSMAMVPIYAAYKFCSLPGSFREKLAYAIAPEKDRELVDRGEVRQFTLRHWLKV

## C[C@@H](CN1CCC(Cc2ccccc2)CC1)[C@@H](O)c1ccc(O)cc1.Cl (relative stereo) [MI-4, [R-(R*, S*)]-α-(4-Hydroxyphenyl)-β-methyl-4-(phenylmethyl)-1-piperidinepropanol hydrochloride]
[1]; HEK cells
  Substrate uptake inhibition potency at hNET greater than at hDAT: 3 – 4 fold
[1]; read-out: [3H]-NE uptake IC50, HEK-hNET cells, mean ± SEM
  IC50: 2090 ± 280 nM
[2]; HEK cells
  Affinity at hNET higher than at hDAT: 10 fold
[2]; HEK-hNET cells, [125I]-RTI-55 binding
  Hill coefficient: -1.04 ± 0.07
[2]; read-out: [125I]-RTI-55 binding Ki, HEK-hNET cells, mean ± SEM
  Ki: 365 ± 68 nM
[3]
  Block of [3H]-WIN 35,428 binding in initial screen: able to block [^3H]-WIN 35,428 binding in a statistically significant fashion
[4]; 10 μM
  [3H]-dopamine uptake inhibition in screening assay: did not appreciably inhibit dopamine uptake
[4]; 10 μM MI-4
  Shift of cocaine DUIP IC50 by MI-4: approximately 3 fold
[4]; read-out: Dopamine uptake inhibition potency (DUIP)
  IC50: 28000 nM
[5]; HEK cells
  Affinity at hSERT higher than at hDAT: 5 fold
[5]; HEK-hSERT cells
  Hill coefficient: -1.09 ± 0.04
[5]; read-out: [125I]-RTI-55 binding Ki, HEK-hSERT cells, mean ± SEM
  Ki: 670 ± 100 nM
[6]
  DUIP increase, HEK vs N2A cells: 4 fold
[7]
  IC50: 790 ± 170 nM
[8]; HEK-hDAT cells
  DAT affinity lower than that of cocaine: 20 fold
  Hill coefficient: -0.80 ± 0.10
[8]; read-out: [125I]-RTI-55 binding Ki, HEK-hDAT cells, mean ± SEM
  Ki: 3460 ± 260 nM
[8]; switch to HEK cells
  DAT affinity increase, HEK vs N2A cells: ~2 fold
[9]
  Crosses the blood-brain barrier: crosses the blood-brain barrier

## COC(=O)[C@@H]1CN(C)CC[C@@H]1c1ccc(Cl)cc1 [4-ARA-127, (1S, 3S, 4R)-4-(chlorophenyl)-3-[hydroxy(methyloxo)methyl]-1-methylpiperidin-1iium]
[10]
  E pKi (experimental pKi): 5.48

## COC(=O)[C@H]1[C@@H](OC(=O)c2ccccc2)C[C@@H]2CC[C@H]1O2 [8-Oxa-norcocaine, methyl (1R,2R,3S,5S)-3-benzoyloxy-8-oxabicyclo[3.2.1]octane-2-carboxylate]
[10]
  E pKi (experimental pKi): 5.81

## COC(=O)[C@H]1[C@@H](OC(=O)c2ccccc2)C[C@@H]2CC[C@H]1N2C [Cocaine, methyl (1R,2R,3S,5S)-3-benzoyloxy-8-methyl-8-azabicyclo[3.2.1]octane-2-carboxylate, reference compound]
[5]; HEK-hSERT cells
  Hill coefficient: -1.12 ± 0.03
[8]; HEK-hDAT cells
  Hill coefficient: -0.81 ± 0.03

## OC1(c2ccc(Cl)cc2)c2ccccc2C2=NCCN21 (stereo not shown) [Mazindol, 5-(4-chlorophenyl)-2,3-dihydroimidazo[2,1-a]isoindol-5-ol]
[10]
  E pKi (experimental pKi): 7.89

## COC(=O)[C@H]1[C@@H](c2ccc(F)cc2)C[C@@H]2CC[C@H]1N2C [WIN 35,428, methyl (1R,2S,3S,5S)-3-(4-fluorophenyl)-8-methyl-8-azabicyclo[3.2.1]octane-2-carboxylate]
[10]
  E pKi (experimental pKi): 7.70
